A word on the pIC50: it is the IC50 on a negative log10 scale, so that one unit is a factor of ten.

26 compounds from patent US9873709B2 (priority 2013, dated 2018) can be followed below.

The structures appear in SMILES notation. pIC50: −log10 of the molar value.

For this test, the system named is JAK1-dependent STAT6 phosphorylation downstream of IL-13 stimulation in TF-1 human erythroleukemia cells. Briefly: cells. Particulars: TF-1, read-out: IL-13-pSTAT6 IC50.
For the compound `CC1CCN(C2CCN(C(=O)c3ccc(Nc4nc5c(C6=CCN(C(=O)CCC(F)(F)F)CC6)cccn5n4)cc3)CC2)CC1` [Example 2-208, 4,4,4-trifluoro-1-[4-[2-[4-[4-(4-methyl-1-piperidyl)piperidine-1-carbonyl]anilino]-[1,2,4]triazolo[1,5-a]pyridin-8-yl]-3,6-dihydro-2H-pyridin-1-yl]butan-1-one], the pIC50 is 8.36. For `COCCN(C(=O)c1ccc(Nc2nc3c(C4=CCN(C(=O)CCC(F)(F)F)CC4)cccn3n2)cc1)C1CCN(C)CC1` [Example 2-209, N-(2-methoxyethyl)-N-(1-methyl-4-piperidyl)-4-[[8-[1-(4,4,4-trifluorobutanoyl)-3,6-dihydro-2H-pyridin-4-yl]-[1,2,4]triazolo[1,5-a]pyridin-2-yl]amino]benzamide], the pIC50 was 7.52. Next, `CCN(CC)C1CCN(C(=O)c2ccc(Nc3nc4c(C5=CCN(C(=O)CCC(F)(F)F)CC5)cccn4n3)cc2)C1` (centres unmarked) [Example 2-211, 1-[4-[2-[4-[3-(diethylamino)pyrrolidine-1-carbonyl]anilino]-[1,2,4]triazolo[1,5-a]pyridin-8-yl]-3,6-dihydro-2H-pyridin-1-yl]-4,4,4-trifluoro-butan-1-one]: 8.15. Next, `CN(CCc1cccnc1)C(=O)c1ccc(Nc2nc3c(C4=CCN(C(=O)CCC(F)(F)F)CC4)cccn3n2)cc1` [Example 2-212, N-methyl-N-[2-(3-pyridyl)ethyl]-4-[[8-[1-(4,4,4-trifluorobutanoyl)-3,6-dihydro-2H-pyridin-4-yl]-[1,2,4]triazolo[1,5-a]pyridin-2-yl]amino]benzamide]: 8.10; `CN1CCCCC1CNC(=O)c1ccc(Nc2nc3c(C4=CCN(C(=O)CCC(F)(F)F)CC4)cccn3n2)cc1` (centres unmarked) [Example 2-214, N-[(1-methyl-2-piperidyl)methyl]-4-[[8-[1-(4,4,4-trifluorobutanoyl)-3,6-dihydro-2H-pyridin-4-yl]-[1,2,4]triazolo[1,5-a]pyridin-2-yl]amino]benzamide]: 8.26; `Cc1ccc(C2CCN(C(=O)c3ccc(Nc4nc5c(C6=CCN(C(=O)CCC(F)(F)F)CC6)cccn5n4)cc3)CC2)nc1` [Example 2-215, 4,4,4-trifluoro-1-[4-[2-[4-[4-(5-methyl-2-pyridyl)piperidine-1-carbonyl]anilino]-[1,2,4]triazolo[1,5-a]pyridin-8-yl]-3,6-dihydro-2H-pyridin-1-yl]butan-1-one]: 7.87.

With `Cc1cccc(CCNC(=O)c2ccc(Nc3nc4c(C5=CCN(C(=O)CCC(F)(F)F)CC5)cccn4n3)cc2)n1` [Example 2-216, N-[2-(6-methyl-2-pyridyl)ethyl]-4-[[8-[1-(4,4,4-trifluorobutanoyl)-3,6-dihydro-2H-pyridin-4-yl]-[1,2,4]triazolo[1,5-a]pyridin-2-yl]amino]benzamide], the pIC50 is 8.13. Under `CN(C)c1cc(CC2CCN(C(=O)c3ccc(Nc4nc5c(C6=CCN(C(=O)CCC(F)(F)F)CC6)cccn5n4)cc3)C2)ncn1` (centres unmarked) [Example 2-217, 1-[4-[2-[4-[3-[[6-(dimethylamino)pyrimidin-4-yl]methyl]pyrrolidine-1-carbonyl]anilino]-[1,2,4]triazolo[1,5-a]pyridin-8-yl]-3,6-dihydro-2H-pyridin-1-yl]-4,4,4-trifluoro-butan-1-one] stands 8.02; under `Cc1ccc(CC2CCN(C(=O)c3ccc(Nc4nc5c(C6=CCN(C(=O)CCC(F)(F)F)CC6)cccn5n4)cc3)C2)nc1` (centres unmarked) [Example 2-218, 4,4,4-trifluoro-1-[4-[2-[4-[3-[(5-methyl-2-pyridyl)methyl]pyrrolidine-1-carbonyl]anilino]-[1,2,4]triazolo[1,5-a]pyridin-8-yl]-3,6-dihydro-2H-pyridin-1-yl]butan-1-one], 7.81. Under `O=C(NCCc1cccnc1)c1ccc(Nc2nc3c(C4=CCN(C(=O)CCC(F)(F)F)CC4)cccn3n2)cc1` [Example 2-220, N-[2-(3-pyridyl)ethyl]-4-[[8-[1-(4,4,4-trifluorobutanoyl)-3,6-dihydro-2H-pyridin-4-yl]-[1,2,4]triazolo[1,5-a]pyridin-2-yl]amino]benzamide] stands 8.24; under `CN1CCC(N(C)C(=O)c2ccc(Nc3nc4c(C5=CCN(C(=O)NCc6ccccc6)CC5)cccn4n3)cc2)CC1` [Example 2-222, N-benzyl-4-[2-[4-[methyl-(1-methyl-4-piperidyl)carbamoyl]anilino]-[1,2,4]triazolo[1,5-a]pyridin-8-yl]-3,6-dihydro-2H-pyridine-1-carboxamide], 6.33; under `CC1CC1C(=O)N1CC=C(c2cccn3nc(Nc4ccc(C(=O)N(C)C5CCN(C)CC5)cc4)nc23)CC1` (centres unmarked) [Example 2-223, N-methyl-4-[[8-[1-(2-methylcyclopropanecarbonyl)-3,6-dihydro-2H-pyridin-4-yl]-[1,2,4]triazolo[1,5-a]pyridin-2-yl]amino]-N-(1-methyl-4-piperidyl)benzamide], 7.76.

Regarding `COC(=O)N1CC=C(c2cccn3nc(Nc4ccc(C(=O)N(C)C5CCN(C)CC5)cc4)nc23)CC1` [Example 2-224, methyl 4-[2-[4-[methyl-(1-methyl-4-piperidyl)carbamoyl]anilino]-[1,2,4]triazolo[1,5-a]pyridin-8-yl]-3,6-dihydro-2H-pyridine-1-carboxylate], the pIC50 is 6.69.

Turning to `CN1CCC(N(C)C(=O)c2ccc(Nc3nc4c(C5=CCN(C(=O)OCC(F)F)CC5)cccn4n3)cc2)CC1` [Example 2-225, 2,2-difluoroethyl 4-[2-[4-[methyl-(1-methyl-4-piperidyl)carbamoyl]anilino]-[1,2,4]triazolo[1,5-a]pyridin-8-yl]-3,6-dihydro-2H-pyridine-1-carboxylate], the pIC50 is 7.95. Consider `CCOC(=O)N1CC=C(c2cccn3nc(Nc4ccc(C(=O)NCCNC)cc4)nc23)CC1` [Example 2-230, ethyl 4-[2-[4-[2-(methylamino)ethylcarbamoyl]anilino]-[1,2,4]triazolo[1,5-a]pyridin-8-yl]-3,6-dihydro-2H-pyridine-1-carboxylate], for which the pIC50 was 6.80. Next, `CCOC(=O)N1CC=C(c2cccn3nc(Nc4ccc(C(=O)NC5CCNC5)cc4)nc23)CC1` (centres unmarked) [Example 2-231, ethyl 4-[2-[4-(pyrrolidin-3-ylcarbamoyl)anilino]-[1,2,4]triazolo[1,5-a]pyridin-8-yl]-3,6-dihydro-2H-pyridine-1-carboxylate]: 6.57; `CCOC(=O)N1CC=C(c2cccn3nc(Nc4ccc(C(=O)N5CCCCC5c5cccnc5)cc4)nc23)CC1` (centres unmarked) [Example 2-232, ethyl 4-[2-[4-[2-(3-pyridyl)piperidine-1-carbonyl]anilino]-[1,2,4]triazolo[1,5-a]pyridin-8-yl]-3,6-dihydro-2H-pyridine-1-carboxylate]: 6.54; `CCOC(=O)N1CC=C(c2cccn3nc(Nc4ccc(C(=O)N5CCCCC5Cc5ccccn5)cc4)nc23)CC1` (centres unmarked) [Example 2-235, ethyl 4-[2-[4-[2-(2-pyridylmethyl)piperidine-1-carbonyl]anilino]-[1,2,4]triazolo[1,5-a]pyridin-8-yl]-3,6-dihydro-2H-pyridine-1-carboxylate]: 7.64.

On to `CCOC(=O)N1CC=C(c2cccn3nc(Nc4ccc(C(=O)N5CCCC(O)(CN6CCCC6)CC5)cc4)nc23)CC1` (centres unmarked) [Example 2-241, ethyl 4-[2-[4-[4-hydroxy-4-(pyrrolidin-1-ylmethyl)azepane-1-carbonyl]anilino]-[1,2,4]triazolo[1,5-a]pyridin-8-yl]-3,6-dihydro-2H-pyridine-1-carboxylate], for which the pIC50 was 7.20. Under `CCOC(=O)N1CC=C(c2cccn3nc(Nc4ccc(C(=O)NCc5ccc(C)nc5)cc4)nc23)CC1` [Example 2-245, ethyl 4-[2-[4-[(6-methyl-3-pyridyl)methylcarbamoyl]anilino]-[1,2,4]triazolo[1,5-a]pyridin-8-yl]-3,6-dihydro-2H-pyridine-1-carboxylate] stands 7.91; under `CCOC(=O)N1CC=C(c2cccn3nc(Nc4ccc(C(=O)N[C@H]5CCCNC5)cc4)nc23)CC1` [Example 2-250, ethyl 4-[2-[4-[[(3S)-3-piperidyl]carbamoyl]anilino]-[1,2,4]triazolo[1,5-a]pyridin-8-yl]-3,6-dihydro-2H-pyridine-1-carboxylate], 7.12; under `O=C(CCC(F)(F)F)N1CC=C(c2cccn3nc(Nc4ccc(C(=O)N5CCC6(CCCNC6)C5)cc4)nc23)CC1` (centres unmarked) [Example 2-253, 1-[4-[2-[4-(2,9-diazaspiro[4.5]decane-2-carbonyl)anilino]-[1,2,4]triazolo[1,5-a]pyridin-8-yl]-3,6-dihydro-2H-pyridin-1-yl]-4,4,4-trifluoro-butan-1-one], 6.82. Under `O=C(CCC(F)(F)F)N1CC=C(c2cccn3nc(Nc4ccc(C(=O)N5CCOC6(CCNCC6)C5)cc4)nc23)CC1` [Example 2-254, 4,4,4-trifluoro-1-[4-[2-[4-(1-oxa-4,9-diazaspiro[5.5]undecane-4-carbonyl)anilino]-[1,2,4]triazolo[1,5-a]pyridin-8-yl]-3,6-dihydro-2H-pyridin-1-yl]butan-1-one] stands 6.23; under `O=C(NC1CCNC1)c1ccc(Nc2nc3c(C4=CCN(C(=O)CCC(F)(F)F)CC4)cccn3n2)cc1` (centres unmarked) [Example 2-255, N-pyrrolidin-3-yl-4-[[8-[1-(4,4,4-trifluorobutanoyl)-3,6-dihydro-2H-pyridin-4-yl][1,2,4]triazolo[1,5 a]pyridin-2-yl]amino]benzamide], 6.53; under `NC1CN(C(=O)c2ccc(Nc3nc4c(C5=CCN(C(=O)CCC(F)(F)F)CC5)cccn4n3)cc2)C1` [Example 2-256, 1-[4-[2-[4-(3-aminoazetidine-1-carbonyl)anilino]-[1,2,4]triazolo[1,5-a]pyridin-8-yl]-3,6-dihydro-2H-pyridin-1-yl]-4,4,4-trifluoro-butan-1-one], 7.16. As for `O=C(CCC(F)(F)F)N1CC=C(c2cccn3nc(Nc4ccc(C(=O)N5CCCC56CCCNC6)cc4)nc23)CC1` (centres unmarked) [Example 2-257, 1-[4-[2-[4-(1,9-diazaspiro[4.5]decane-1-carbonyl)anilino]-[1,2,4]triazolo[1,5-a]pyridin-8-yl]-3,6-dihydro-2H-pyridin-1-yl]-4,4,4-trifluoro-butan-1-one], the pIC50 was 7.22.
